Measurements as given in US20240228607A9, “METHODS FOR TREATING HIGH RISK MYELODYSPLASTIC SYNDROMES” (Northwestern University, priority 2022, published 2024).
Entries after “also recorded” stand apart in the source; their conditions may differ.

How the values were obtained:
[1] = system: MDSL cells; assay: MDSL cell proliferation (CCK-8); assay type: cell-based; conditions: 50 μg/mL, vs human IgG control
Experimental: (§1) (A) Cultured MDS-derived cell line (MDSL) cells were treated with tocilizumab or IgG for 1 hour at the indicated concentration. Cells were then challenged with human recombinant IL-6 (10 ng/mL) for 15 min followed by a western blot assay of p-STAT3. Actin was used as a loading control. (B) 1×10^4/well MDSL cells were seeded in a 96-well plate on day 0 in MDSL culture medium with 50 μg/mL tocilizumab or 50 μg/mL human IgG control. Relative cell number was assessed with CCK-8 reagent at the indicated time points. (C) 1×10^6 MDSL cells were transplanted into sub-lethally irradiated NSG recipient mice. 10 days after transplantation, mice were subjected to weekly treatment with tocilizumab (TCZ) or human IgG (8 mg/kg) by intraperitoneal administration. Engraftment was evaluated 60 days post transplantation via flow cytometry assays of hCD45+ mononuclear cells in the peripheral blood. N=5 in each group, data are presented as Mean±SD. (D) Quantification of the percentage of hCD45+ cells in C. (E-F) Colony-forming unit (CFU) assays in normal (E) and high risk MDS patient (F) bone marrow derived CD34+ cells. 1×10^3 normal (E) or 2×10^3 patient CD34+ cells (F) were seeded in MethoCult medium supplemented with human IgG or tocilizumab (50 μg/mL) on day 0. The number of colonies was accessed on day 14. Triplicate assay colonies were independently identified by two individuals. […]

[2] = system: high risk MDS patient bone marrow derived CD34+ cells; assay: Colony-forming unit (CFU) assay, high risk MDS patient bone marrow CD34+ cells; assay type: cell-based; conditions: CD34+ cells from high risk MDS patients, 50 μg/mL, day 14, vs human IgG
Experimental: as §1, with “C.” for “C. (E-F) Colony-forming unit (CFU) assays in normal (E) and high risk MDS patient (F) bone marrow derived CD34+ cells. 1×10^3 normal (E) or 2×10^3 patient CD34+ cells (F) were seeded in MethoCult medium supplemented with human IgG or tocilizumab (50 μg/mL) on day 0. The number of colonies was accessed on day 14. Triplicate assay colonies were independently identified by two individuals.”
(§2) For the CFU assay, CD34+ cells were thawed in a 37° C. water bath. […] Cell viability was assessed with trypan blue staining and counted with Bio-Rad TC20 cell counter. […] 14 days after seeding, the CFU assay was ready for evaluation. Colonies were counted under an inverted microscope (EVOS M5000, Thermo Fisher), and the colonies were identified by two independent individuals.

[3] = system: p-STAT3; assay: Western blot of p-STAT3 in MDSL cells challenged with human recombinant IL-6; assay type: cell-based; conditions: 1 hour treatment, then human recombinant IL-6 10 ng/mL for 15 min, vs IgG
Experimental: as §1

[4] = system: MDSL cells; assay: Cell death in MDSL cells; assay type: cell-based, human
[5] = system: normal bone marrow CD34+ cells; assay: Colony-forming unit (CFU) assay, normal bone marrow CD34+ cells; assay type: cell-based; conditions: 50 μg/mL, day 14, vs human IgG
Experimental: as §1, with “C.” for “C. (E-F) Colony-forming unit (CFU) assays in normal (E) and high risk MDS patient (F) bone marrow derived CD34+ cells. 1×10^3 normal (E) or 2×10^3 patient CD34+ cells (F) were seeded in MethoCult medium supplemented with human IgG or tocilizumab (50 μg/mL) on day 0. The number of colonies was accessed on day 14. Triplicate assay colonies were independently identified by two individuals.”
as §2

[6] = system: MDSL cells; assay: Xenograft of MDSL cells in NSG mice; assay type: in vivo, mouse; conditions: 8 mg/kg weekly intraperitoneal; for spleen weight: NSG mice transplanted with MDSL cells
Experimental: (A) Cultured MDS-derived cell line (MDSL) cells were treated with tocilizumab or IgG for 1 hour at the indicated concentration. Cells were then challenged with human recombinant IL-6 (10 ng/mL) for 15 min followed by a western blot assay of p-STAT3. Actin was used as a loading control. (B) 1×10^4/well MDSL cells were seeded in a 96-well plate on day 0 in MDSL culture medium with 50 μg/mL tocilizumab or 50 μg/mL human IgG control. Relative cell number was assessed with CCK-8 reagent at the indicated time points. (C) 1×10^6 MDSL cells were transplanted into sub-lethally irradiated NSG recipient mice. 10 days after transplantation, mice were subjected to weekly treatment with tocilizumab (TCZ) or human IgG (8 mg/kg) by intraperitoneal administration. Engraftment was evaluated 60 days post transplantation via flow cytometry assays of hCD45+ mononuclear cells in the peripheral blood. N=5 in each group, data are presented as Mean±SD. (D) Quantification of the percentage of hCD45+ cells in C. (E-F) Colony-forming unit (CFU) assays in normal (E) and high risk MDS patient (F) bone marrow derived CD34+ cells. 1×10^3 normal (E) or 2×10^3 patient CD34+ cells (F) were seeded in MethoCult medium supplemented with human IgG or tocilizumab (50 μg/mL) on day 0. The number of colonies was accessed on day 14. Triplicate assay colonies were independently identified by two individuals. Data are presented as Mean±SD. E, G, M, GM, and GEMM represent BFU/CFU-E, CFU-G, CFU-M, CFU-GM, and CFU-GEMM, respectively, in both E and F.
NOD/SCID-IL2Rg mice (NSG) mice were purchased from the Jackson Laboratory (Stock #005557). 1×10^6 of MDS-derived cell line (MDSL) cells were retro-orbitally injected into 12-week-old sub-lethally irradiated (250 rad) female NSG mice. Ten days after transplantation, human IgG isotype control (BE0297, InVivoMab) or tocilizumab (Selleck) were administered at 8 mg/kg weekly via intraperitoneal injection. To evaluate the engraftment, peripheral blood was collected from tail vein on day 60. […]

[7] = transfusion-dependent patients, low or intermediate-1-risk MDS, vs placebo; cited from earlier work

| Molecule | cell proliferation (relative cell number, CCK-8) [1] | colony numbers / clonogenicity [2] | colony numbers / clonogenicity ([2]; listed as Tocilizumab) | p-STAT3 [3] | cell death [4] | colony expansion or composition / colony numbers [5] | colony expansion or composition / colony numbers ([5]; listed as Tocilizumab) | spleen weight [6] | spleen weight ([6]; listed as Tocilizumab) | MDSL engraftment (hCD45+ mononuclear cells in the peripheral blood) ([6]; NSG mice, 60 days post transplantation, vs human IgG) | RBC transfusions [7] |
| --- | --- | --- | --- | --- | --- | --- | --- | --- | --- | --- | --- |
| tocilizumab | decreased cell proliferation; also recorded: reduces cell proliferation | markedly reduced; also recorded: reduces cell proliferation and colony formation; also recorded: reduces the colony numbers | significantly reduced clonogenicity | significant reduction | partial induction of cell death; also recorded: partially induces cell death | no effects on the colony numbers | did not affect colony expansion or composition | reduces spleen weight | reduced the spleen weight | significantly reduced MDSL engraftment; also recorded: markedly reduced the engraftment |  |
| siltuximab (antibody, chains of the INN, looked up, V domains shown) VH: EVQLVESGGKLLKPGGSLKLSCAASGFTFSSFAMSWFRQSPEKRLEWVAEISSGGSYTYYPDTVTGRFTISRDNAKNTLYLEMSSLRSEDTAMYYCARGLWGYYALDYWGQGTSVTVSS VL: QIVLIQSPAIMSASPGEKVTMTCSASSSVSYMYWYQQKPGSSPRLLIYDTSNLASGVPVRFSGSGSGTSYSLTISRMEAEDAATYYCQQWSGYPYTFGGGTKLEIK |  |  |  |  |  |  |  |  |  |  | no reduction in RBC transfusions |
